Entries after “also recorded” stand apart in the source; their conditions may differ. Read-outs that look alike come from different tables or passages of the source.
Columns and labels:
[1] = Plasma pharmacokinetics after intravenous administration (UHPLC–MS/MS); assay type: in vivo, SD rats; conditions: rat plasma; for AUC(0-inf) / AUC(0-t) / Cmax / Vd / clearance / half-life: both sexes, SD
Description: 50 μL of the plasma to be tested was aspirated precisely and placed in a 1.5 mL centrifuge tube. Then 5 μL of internal standard working solution and 150 μL of methanol were added sequentially to the centrifuge tube, and the tube was vortexed for 60 s and centrifuged at 6147× g for 10 min. Finally, 100 μL of supernatant was taken and added to the injection vial for quantitative analysis by UHPLC–MS/MS.
(§1) Liquid chromatography conditions. UHPLC–MS/MS analyses were performed on an Agilent 1260 ultra-high performance liquid chromatograph (Agilent Technologies Co., Ltd., Santa Clara, CA, USA) and a QTRAP 5500 triple quadrupole tandem mass spectrometer (AB Sciex Pte. Ltd., Framingham, MA, USA). An ACQUITY UPLC BEH C18 column (2.1 × 50 mm, 1.7 µm) was used at […] with a flow rate of 0.3 mL/min and an injection volume of 2 µL. The analysis time was 5 min using an isocratic elution procedure of methanol and water (4:1, v/v).
In the plasma pharmacokinetic study, 30 healthy SD rats (half male and half female) were selected and randomly divided into 3 groups of 10 rats each. Three groups of SD rats were injected with a single dose of compound 1 (0.8 mg/kg, 1.6 mg/kg, 3.2 mg/kg) by tail vein, respectively. At 0.084, 0.25, 1, 2, 4, 6, 8, 12, 24 h after administration, 0.5 mL of blood was collected from the fundus venosus in heparin-anticoagulated tubes, and the plasma was separated by centrifugation at 6149× g for 10 min, and then placed in 1.5 mL Eppendorf tubes and stored in the refrigerator at −80 °C for measurement.
(§2) The data was processed using Origin 2021 to plot the drug concentration–time curve in plasma, and DAS 2.0 software was used to calculate the pharmacokinetic parameters by the […] statistical moment method, and the results of the experiments were expressed as mean ± standard deviation. Differences between groups were analyzed using SPSS 20.0, with p < 0.05 indicating statistical significance.

PYGB = system: PYGB; set-up: method as in PMID 36234871, PMID 36838691, PMID 36108587; conditions: previous studies; read-out: IC50 of PYGB inhibition; cited from earlier work
[2] = Stability of compound 1 in rat plasma under different storage conditions; assay type: in vitro ADME
Description: Stability was assessed under the four conditions (storage at room temperature for 12 h, […] for 24 h, refrigerator storage at −20 °C for 10 days, and freeze-thawing at −80 °C to 25 °C for 3 cycles) using the QC working solution (2.5, 800 ng/mL), and six preparations were made in parallel for each concentration. The stability of compound 1 in rat plasma was evaluated by calculating the peak area ratio (compound 1/IS) in plasma sample.

[3] = Brain tissue distribution after intravenous administration; assay type: in vivo, SD rats; conditions: rat; for brain tissue concentration: after injection
Description: Brain tissue homogenate samples for analysis were prepared by adding 9 volumes of homogenate solution (MeOH/15 mMPBS (1: 2, v/v)) to one volume of brain homogenate and diluting it 10-fold. Firstly, an aliquot of 40 μL of the brain homogenate sample to be tested (diluted sample), calibration standards, QC and diluted QC, a zero sample (with internal standard) and a blank sample (without internal standard) were added to the 96-well plate. Then, each sample (except blank samples) was quenched with 400 μL of IS1 (blank samples were quenched with 400 μL of acetonitrile), and the mixture was vortexed at 800 rpm for 10 min, followed by centrifugation at 3220× g at 4 °C for 15 min. Finally, a 50 μL aliquot of the supernatant was transferred to another clean 96-well plate and centrifuged at 3220× g for 15 min at 4 °C, then injected directly into the sample for UHPLC–MS/MS analysis.
as §1
In the preliminary brain tissue distribution study, 18 healthy male SD rats were injected with 3.2 mg/kg of compound 1 intravenously into the tail, and the animals were euthanized by CO2 inhalation at 0.25, 2 and 8 h after the administration of compound 1, respectively. Blood and brain tissue were then collected separately from each animal. Brain tissue was homogenized on wet ice using homogenizing buffer (MeOH/15 mM PBS = 1/2) at a ratio of 1:9 (1 g tissue to 9 mL buffer). The tissue homogenate was divided into two parts, 0.8 mL was used for analysis and the rest was discarded.
as §2

[4] = male, Sprague-Dawley (SD), brain tissue, 3.2 mg/kg iv
[5] = 3.2 mg/kg iv, 0.25 h, 3.2 mg/kg

- AUC(0-inf) ([1]; 0.8 mg/kg iv): 900 ± 441 ng·h/mL
- AUC(0-t) ([1]; 0.8 mg/kg iv): 895 ± 440 ng·h/mL
- Cmax ([1]; 0.8 mg/kg iv): 1180 ± 361 ng/mL
- Vd ([1]; 0.8 mg/kg iv): 6.43 ± 3.48 L/kg
- clearance ([1]; 0.8 mg/kg iv): 16.7 mL/min/kg
- half-life ([1]; 0.8 mg/kg iv): 4.56 ± 2.17 h
- AUC(0-inf) ([1]; 1.6 mg/kg iv): 1610 ± 371 ng·h/mL
- AUC(0-t) ([1]; 1.6 mg/kg iv): 1600 ± 372 ng·h/mL
- Cmax ([1]; 1.6 mg/kg iv): 2030 ± 289 ng/mL
- Vd ([1]; 1.6 mg/kg iv): 7.51 ± 6.15 L/kg
- clearance ([1]; 1.6 mg/kg iv): 17.3 mL/min/kg
- half-life ([1]; 1.6 mg/kg iv): 4.8 ± 3.22 h
- AUC(0-inf) ([1]; 3.2 mg/kg iv): 3630 ± 973 ng·h/mL
- AUC(0-t) ([1]; 3.2 mg/kg iv): 3630 ± 970 ng·h/mL
- Cmax ([1]; 3.2 mg/kg iv): 3710 ± 683 ng/mL
- Vd ([1]; 3.2 mg/kg iv): 4.14 ± 1.23 L/kg
- clearance ([1]; 3.2 mg/kg iv): 15.7 mL/min/kg
- half-life ([1]; 3.2 mg/kg iv): 3.08 ± 0.58 h
- Stability, RE ([2]; 2.5 ng/mL, auto-sampler (24 h), 4 °C): 13.81%
- Stability, RE ([2]; 2.5 ng/mL, room temperature (12 h)): 0.50%
- Stability, RE ([2]; 2.5 ng/mL, storage at −20 °C (10 days)): 12.30%
- Stability, RE ([2]; 2.5 ng/mL, thaw and freeze (from −80 °C to 25 °C), 3 cycles): 12.40%
- Stability, RE ([2]; 800 ng/mL, auto-sampler (24 h), 4 °C): −3.20%
- Stability, RE ([2]; 800 ng/mL, room temperature (12 h)): 1.03%
- Stability, RE ([2]; 800 ng/mL, storage at −20 °C (10 days)): −0.65%
- Stability, RE ([2]; 800 ng/mL, thaw and freeze (from −80 °C to 25 °C), 3 cycles): −3.64%
- AUC0–∞ ([3]; brain tissue, 3.2 mg/kg iv): 668 ng·h/g
- concentration at 0.25 h ([3]; male, SD, brain, iv, 3.2 mg/kg, 3.2 mg/kg iv, 0.25 h, read-out: CBrain (concentration in brain tissue)): 440 ± 19.1 ng/g
- concentration at 2 h ([3]; male, SD, brain, iv, 3.2 mg/kg, 3.2 mg/kg iv, 2 h, read-out: CBrain (concentration in brain tissue)): 111 ± 23.9 ng/g
- concentration at 8 h ([3]; male, SD, brain, iv, 3.2 mg/kg, 3.2 mg/kg iv, 8 h, read-out: CBrain (concentration in brain tissue)): 4.17 ± 7.22 ng/g
- Kp at 0.25 h ([3]; male, SD, brain/plasma, iv, 3.2 mg/kg, 3.2 mg/kg iv, 0.25 h, read-out: CBrain/CPlasma ratio): 0.112 ± 0.0185
- Kp at 2 h ([3]; male, SD, brain/plasma, iv, 3.2 mg/kg, 3.2 mg/kg iv, 2 h, read-out: CBrain/CPlasma ratio): 0.112 ± 0.0292
- Kp at 8 h ([3]; male, SD, brain/plasma, iv, 3.2 mg/kg, 3.2 mg/kg iv, 8 h, read-out: CBrain/CPlasma ratio): 0.09 ± 0.148
- concentration at 0.25 h ([3]; male, SD, plasma, iv, 3.2 mg/kg, 3.2 mg/kg iv, 0.25 h, read-out: CPlasma (concentration in plasma)): 4020 ± 677 ng/g
- concentration at 2 h ([3]; male, SD, plasma, iv, 3.2 mg/kg, 3.2 mg/kg iv, 2 h, read-out: CPlasma (concentration in plasma)): 1020 ± 275 ng/g
- concentration at 8 h ([3]; male, SD, plasma, iv, 3.2 mg/kg, 3.2 mg/kg iv, 8 h, read-out: CPlasma (concentration in plasma)): 32.9 ± 14.5 ng/g
- Cmax ([3]; male, SD, plasma, 3.2 mg/kg iv): 4890 ng/g
- Tmax ([3]; male, SD, plasma, 3.2 mg/kg iv): 0 h
- half-life ([3]; male, SD, plasma, 3.2 mg/kg iv): 1.14 h
- Cmax [3, 4]: 440 ng/g
- MRT [3, 4]: 1.65 h
- Tmax [3, 4]: 0.25 h
- half-life [3, 4]: 1.18 h
- MRT ([3]; male, Sprague-Dawley (SD), plasma, 3.2 mg/kg iv): 1.47 h
- AUC0–∞ ([3]; plasma, 3.2 mg/kg iv): 6659 ng·h/g
- CBrain (concentration in brain tissue) [3, 5]: 440.0 ± 19.1 ng/g
- CBrain/CPlasma ratio [3, 5]: 0.11 ± 0.019
- CBrain (concentration in brain tissue) ([3]; 3.2 mg/kg iv, 2 h, 3.2 mg/kg): 111.0 ± 23.9 ng/g
- CBrain/CPlasma ratio ([3]; 3.2 mg/kg iv, 2 h, 3.2 mg/kg): 0.11 ± 0.029
- CBrain (concentration in brain tissue) ([3]; 3.2 mg/kg iv, 8 h, 3.2 mg/kg): 4.2 ± 7.2 ng/g
- brain tissue concentration ([3]; 0.25 h (abstract)): 440 ± 19.1 ng/g
- brain tissue concentration ([3]; 2 h (abstract)): 111 ± 23.9 ng/g
Structure (SMILES): CCCC1(CCC)NC(=O)c2cc(NC(=O)c3cc4cc(Cl)ccc4[nH]3)ccc2O1 [compound 1, 5-chloro-N-(4-oxo-2,2-dipropyl-3,4-dihydro-2H-benzo[e][1,3]oxazin-6-yl)-1H-indole-2-carboxamide]
- linearity of pharmacokinetics ([1]; iv, dose range 0.8–3.2 mg/kg): linear pharmacokinetic characteristics; also recorded: linear pharmacokinetic profile
- IC50 (PYGB): 90.3 nM
- crossing of the blood–brain barrier ([3]; iv): able to cross the blood–brain barrier; also recorded: could quickly cross the blood–brain barrier

— PMC10574475, “Development and Validation of a UHPLC–MS/MS Method for the Quantification of a Novel PYGB Inhibitor in Plasma: Application to Pharmacokinetic Studies” (Molecules, 2023)
